Experimental data published in patent US7026305B2, “Anti-HIV agents with dual sites of action” (Meharry Medical College, priority 2003, dated 2006).
Read-outs that look alike come from different tables or passages of the source.

Experiments:
Assay type in all cases: cell-based
[1] = test system: PI-R: A multiple HIV-1 protease inhibitor resistant strain; assay: Anti-HIV activity against multiple protease inhibitor resistant HIV-1 strain (FIG. 1, FIG. 2)
Excerpt: (§1) FIG. 1: Anti-HIV activity of N-[3-β-O-(3′,3′-dimethylsuccinyl)-lup-20(29)-en-28-oyl]-11-aminoundecanoic acid (LH 55-1). PI-R: A multiple HIV-1 protease inhibitor resistant strain. RT-R: A multiple HIV-1 reverse transcriptase inhibitor resistant strain. NL4-3: A T-cell line adapted HIV-1 strain. NL4-3/AZT: The effect of the 1st anti-HIV drug AZT on the NL4-3 virus.
(§2) (PI-R: A multiple HIV-1 protease inhibitor resistant strain. FH-R: DSB resistant HIV-1 strain. FH=DSB).
(§3) FIG. 1 graphically illustrates the anti-HIV activity of Compound 12 (also called compound LH 55-1). In FIG. 1, PI-R represents a multiple HIV-1 protease inhibitor resistant strain of HIV-1. RT-R represents a multiple HIV-1 reverse transcriptase inhibitor resistant strain of HIV-1; NL4-3 represents a T-cell line adapted HIV-1 strain; and NL4-3/AZT represents the effect of AZT on the NL4-3 virus.
(§4) FIG. 2 graphically illustrates that multiple protease inhibitor resistant strains of HIV-1 and DSB resistant HIV-1 are sensitive to Compound 12 (LH55-1). PI-R indicates a multiple HIV-1 protease inhibitor resistant strain of HIV-1, and FH-R indicates a DSB resistant HIV-1 strain (FH=DSB).

[2] = test system: FH-R: DSB resistant HIV-1 strain; assay: Anti-HIV activity against DSB resistant HIV-1 strain (FIG. 2)
Excerpt: as §2, §4

[3] = test system: HIV-1 envelope-mediated membrane fusion (COS cells expressing NL4-3 envelope glycoproteins and Hela cells expressing CD4 and CXCR4); assay: Cell-cell fusion assay (HIV-1 entry, FIG. 3)
Description: FIG. 3. LH55-1 (compound 12) and compound 9 inhibit HIV-1 entry. Fusion between COS cells expressing NL4-3 envelope glycoproteins and Hela cells expressing CD4 and CXCR4 were performed in the presence of compound 9, 12 and T20 as indicated in the figure.
To determine the mechanisms of action, the ability of LH55-1 and compound 9 to inhibit HIV-1 entry were analyzed by using a cell-cell fusion assay. Inhibition of HIV-1 envelope-mediated membrane fusion will prevent HIV-1 from entering into the cells. […] T20 is a polypeptide fusion inhibitor recently approved for anti-HIV-1 therapy by FDA, USA.

[4] = test system: RT-R: A multiple HIV-1 reverse transcriptase inhibitor resistant strain; assay: Anti-HIV activity against multiple reverse transcriptase inhibitor resistant HIV-1 strain (FIG. 1)
Excerpt: as §1, §3

[5] = test system: HIV-1 maturation (processing of P25 into p24); assay: Inhibition of viral maturation, Western blot of viral particles from ACH-2 cells (FIG. 4)
Excerpt: FIG. 4. LH55-1 (compound 12) inhibits HIV-1 maturation. HIV-1 viral particles produced from ACH-2 cells in the absence (A) or presence (B) of LH55-1. The collected viral samples were lysed and analyzed by using a Western blot. The primary antibody used for the Western blot is a HIV-1 positive human serum. Mw: Molecular weight standards.
P24 is the capsid protein of HIV-1 and is essential for viral infectivity. P25 is the precursor of p24. Inhibition of the processing of P25 into p24 will result in an immature viral particle without infectivity. […] Further studies in our laboratory indicate that the amino acids at the C-terminus of P24 are critical determinant for the drug sensitivity. The anti-HIV-1 maturation activity of LH55-1 is different from that of HIV-1 protease inhibitors since maturation of other HIV-1 gag proteins such as P17 in not affected by LH55-1.

Question: `C=C(C)C1CC[C@]2(C(=O)O)CC[C@]3(C)[C@H](CCC4[C@@]5(C)CCC(OC(=O)CC(C)(C)C(=O)O)C(C)(C)[C@@H]5CC[C@]43C)[C@@H]12` (stereo partly shown) [DSB, reference compound] was tested. Which “anti-HIV activity / sensitivity of virus to compound” value [1] did it give?
Answer: Its value is “resistant”.

Question: And the “sensitivity of virus to compound” value [2]?
Answer: The value was “resistant”.

Question: How did the anti-HIV-1 entry activity [3] turn out when `C=C(C)[C@@H]1CC[C@]2(C(=O)NC(CC(C)C)C(=O)O)CC[C@]3(C)[C@H](CCC4[C@@]5(C)CC[C@H](OC(=O)CC(C)(C)C(=O)O)C(C)(C)[C@@H]5CC[C@]43C)[C@@H]12` (stereo partly drawn) [compound 9, N-[3-β-O-(3′,3′-dimethylsuccinyl)-lup-20(29)-en-28-oyl]-L-leucine] was run?
Answer: Its anti-HIV-1 entry activity is “exhibited anti-HIV-1 entry activity, albeit at higher concentrations than compound 12”.

Question: Which results are given for `C=C(C)[C@@H]1CC[C@]2(C(=O)NCCCCCCCCCCC(=O)O)CC[C@]3(C)[C@H](CC[C@@H]4[C@@]5(C)CC[C@H](OC(=O)CC(C)(C)C(=O)O)C(C)(C)[C@@H]5CC[C@]43C)[C@@H]12` [compound 12, N-[3-β-O-(3′,3′-dimethylsuccinyl)-lup-20(29)-en-28-oyl]-11-aminoundecanoic acid]?
Answer: anti-HIV activity / sensitivity of virus to compound [1]: substantial antiviral activity; anti-HIV activity / sensitivity of virus to compound ([1]; listed as Compound 12): sensitive; anti-HIV activity / sensitivity of virus to compound ([1]; listed as LH55-1): very sensitive; anti-HIV activity [4]: substantial antiviral activity; sensitivity of virus to compound [2]: sensitive; sensitivity of virus to compound ([2]; listed as LH55-1): very sensitive; anti-HIV-1 entry activity [3]: potent HIV-1 entry inhibitor; concentration blocking HIV-1 envelope-mediated membrane fusion [3]: sub-micromolar; maturation of other HIV-1 gag proteins such as P17 [5]: not affected; processing of P25 into p24 (virion maturation) ([5]; viral particles from ACH-2 cells): accumulation of P25
